The target of this test is NP-1 (Homo sapiens, UniProt O14786). Nature of the test: Biotinylated-VEGF-A165 (bt-VEGF-A165) binding to NP-1. As to conditions: for inhibition at 3 µM: 3 μM compound, read-out: Screen (% inhibition at 3 μM); for inhibition at 30 µM: 30 μM compound, read-out: Screen (% inhibition at 30 μM). A digest of the protocol: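 Both formats: compound with bt-VEGF-A165 for 2 h at room temperature, detection via streptavidin-HRP at A450 (ref A595). Cell-based: Ad.NP-1-transfected DU145 cells, 2 nM tracer, nonspecific from 100-fold unlabelled VEGF-A165. Cell-free: NP-1-coated wells (3 μg/ml), 0.25 nM tracer, nonspecific from uncoated wells.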
Chain of NP-1 (O14786 22-923): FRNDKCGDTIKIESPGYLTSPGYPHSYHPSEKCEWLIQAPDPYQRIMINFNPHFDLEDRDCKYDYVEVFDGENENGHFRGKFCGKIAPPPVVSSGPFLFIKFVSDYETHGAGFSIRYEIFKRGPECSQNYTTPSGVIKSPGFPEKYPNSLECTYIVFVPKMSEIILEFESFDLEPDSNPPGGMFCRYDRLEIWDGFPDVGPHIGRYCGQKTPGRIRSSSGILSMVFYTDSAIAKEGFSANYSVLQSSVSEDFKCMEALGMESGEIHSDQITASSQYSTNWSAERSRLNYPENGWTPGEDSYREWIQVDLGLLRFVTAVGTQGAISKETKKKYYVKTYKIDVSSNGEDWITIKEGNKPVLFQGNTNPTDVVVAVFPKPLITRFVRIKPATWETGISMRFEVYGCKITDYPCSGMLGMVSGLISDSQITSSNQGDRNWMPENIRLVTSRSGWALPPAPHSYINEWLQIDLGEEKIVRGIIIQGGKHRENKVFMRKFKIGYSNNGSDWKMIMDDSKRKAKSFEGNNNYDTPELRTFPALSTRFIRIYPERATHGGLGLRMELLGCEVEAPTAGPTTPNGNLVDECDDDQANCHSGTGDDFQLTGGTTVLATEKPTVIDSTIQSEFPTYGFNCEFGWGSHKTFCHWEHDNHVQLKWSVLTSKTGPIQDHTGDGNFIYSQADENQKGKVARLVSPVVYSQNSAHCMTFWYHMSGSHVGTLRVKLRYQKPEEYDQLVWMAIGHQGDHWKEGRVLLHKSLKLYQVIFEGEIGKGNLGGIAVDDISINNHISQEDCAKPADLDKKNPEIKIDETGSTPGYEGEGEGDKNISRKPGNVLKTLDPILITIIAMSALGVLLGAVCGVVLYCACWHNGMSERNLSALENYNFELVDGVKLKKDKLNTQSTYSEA

As for `N=C(N)NCCC[C@H](NC(=O)c1sccc1NS(=O)(=O)c1cc(-c2cccc(CNCc3cn[nH]c3)c2)cc2c1OCC2)C(=O)O` [Compound 51, (S)-5-Guanidino-2-({3-[5-(3-{[(1H-pyrazol-4-ylmethyl)-amino]-methyl}-phenyl)-2,3-dihydro-benzofuran-7-sulfonylamino]-thiophene-2-carbonyl}-amino)-pentanoic acid], the IC50 is 740 nM and the inhibition at 3 µM was determined as 94%.
Turning to `N=C(N)NCCC[C@H](NC(=O)c1sccc1NS(=O)(=O)c1cc(-c2cccc(CN3CCC(N4CCOCC4)CC3)c2)cc2c1OCC2)C(=O)O` [Compound 22, (S)-5-Guanidino-2-[(3-{5-[3-(4-morpholin-4-yl-piperidin-1-ylmethyl)-phenyl]-2,3-dihydro-benzofuran-7-sulfonylamino}-thiophene-2-carbonyl)-amino]-pentanoic acid], the inhibition at 3 µM was 70% and the inhibition at 30 µM was found to be 98%.
The corresponding values for `N=C(N)NCCC[C@H](NC(=O)c1sccc1NS(=O)(=O)c1cccc(NCc2cnn(CCN3CCN(c4ccccn4)CC3)c2)c1)C(=O)O` [Compound 68] are 37% and 89%.
`N=C(N)NCCC[C@H](NC(=O)c1sccc1NS(=O)(=O)c1cccc(NCc2csc(N3CCN(c4ccncc4)CC3)n2)c1)C(=O)O` [Compound 57, (S)-5-guanidino-2-{[3-(3-{[2-(4-pyridin-4-yl-piperazin-1-yl)-thiazol-4-ylmethyl]-amino}-benzenesulfonylamino)-thiophene-2-carbonyl]-amino}-pentanoic acid]: the IC50 worked out at 40 nM, the inhibition at 3 µM was 98% and the inhibition at 30 µM came out at 99%.
As to `N=C(N)NCCC[C@H](NC(=O)c1sccc1NS(=O)(=O)c1cc(-c2ccccc2CNCc2ncc[nH]2)cc2c1OCC2)C(=O)O` [Compound 24, (S)-5-Guanidino-2-({3-[5-(2-{[(1H-imidazol-2-ylmethyl)-amino]-methyl}-phenyl)-2,3-dihydro-benzofuran-7-sulfonylamino]-thiophene-2-carbonyl}-amino)-pentanoic acid], the inhibition at 3 µM was determined as 67% and the inhibition at 30 µM was 100%.
On the same counts, the results for `N=C(N)NCCC[C@H](NC(=O)c1sccc1NS(=O)(=O)c1cccc(NCc2csc(C(=O)O)n2)c1)C(=O)O` [Compound 72] are 31% and 83%.
Consider `N=C(N)NCCC[C@H](NC(=O)c1sccc1NS(=O)(=O)c1cc(-c2cccc(CNCCc3cn[nH]c3)c2)cc2c1OCC2)C(=O)O` [Compound 42, (S)-5-Guanidino-2-({3-[5-(3-{[2-(1H-pyrazol-4-yl)-ethylamino]-methyl}-phenyl)-2,3-dihydro-benzofuran-7-sulfonylamino]-thiophene-2-carbonyl}-amino)-pentanoic acid], for which the inhibition at 3 µM is 78%.
On the same count and under the same terms, next, `N=C(N)NCCC[C@H](NC(=O)c1sccc1NS(=O)(=O)c1cc(-c2cccc(CNCc3ccncc3)c2)cc2c1OCC2)C(=O)O` [Compound 32, (S)-5-Guanidino-2-({3-[5-(3-{[(pyridin-4-ylmethyl)-amino]-methyl}-phenyl)-2,3-dihydro-benzofuran-7-sulfonylamino]-thiophene-2-carbonyl}-amino)-pentanoic acid]: 75%.
As for `N=C(N)NCCC[C@H](NC(=O)c1sccc1NS(=O)(=O)c1cc(-c2cccc(CNCCO)c2)cc2c1OCC2)C(=O)O` [Compound 35, (S)-5-Guanidino-2-{[3-(5-{3-[(2-hydroxy-ethylamino)-methyl]-phenyl}-2,3-dihydro-benzofuran-7-sulfonylamino)-thiophene-2-carbonyl]-amino}-pentanoic acid], the inhibition at 3 µM is 71% and the inhibition at 30 µM was 96%.
Take `N=C(N)NCCC[C@H](NC(=O)c1sccc1NS(=O)(=O)c1cccc(NCc2csc(N3CCN(c4ccccn4)CC3)n2)c1)C(=O)O` [Compound 63, (S)-5-guanidino-2-{[3-(3-{[2-(4-pyridin-2-yl-piperazin-1-yl)-thiazol-4-ylmethyl]-amino}-benzenesulfonylamino)-thiophene-2-carbonyl]-amino}-pentanoic acid]: the inhibition at 3 µM was found to be 49% and the inhibition at 30 µM is 83%.
For `N=C(N)NCCC[C@H](NC(=O)c1sccc1NS(=O)(=O)c1cc(-c2cccc(CN3CCN(Cc4ccccn4)CC3)c2)cc2c1OCC2)C(=O)O` [Compound 29, (S)-5-Guanidino-2-[(3-{5-[3-(4-pyridin-2-ylmethyl-piperazin-1-ylmethyl)-phenyl]-2,3-dihydro-benzofuran-7-sulfonylamino}-thiophene-2-carbonyl)-amino]-pentanoic acid], the IC50 was found to be 686 nM, the inhibition at 3 µM was 79% and the inhibition at 30 µM was 100%.
On to `N=C(N)NCCC[C@H](NC(=O)c1sccc1NS(=O)(=O)c1cc(-c2ccccc2CN2CCC(C(=O)O)CC2)cc2c1OCC2)C(=O)O` [Compound 1, 1-(2-{7-[2-((S)-1-Carboxy-4-guanidino-butylcarbonyl)-thiophen-3-ylsulfamoyl]-2,3-dihydro-benzofuran-5-yl}-benzyl)-piperidine-4-carboxylic acid], for which the IC50 was determined as 7 nM and the inhibition at 3 µM worked out at 100%.
`N=C(N)NCCC[C@H](NC(=O)c1sccc1NS(=O)(=O)c1cccc(NCc2csc(N3CCN(c4cnccn4)CC3)n2)c1)C(=O)O` [Compound 74]: the inhibition at 3 µM is 55%.
Consider `CCN(Cc1ccncc1)c1nc(CNc2cccc(S(=O)(=O)Nc3ccsc3C(=O)N[C@@H](CCCNC(=N)N)C(=O)O)c2)cs1` [Compound 73, (S)-2-{[3-(3-{[2-(Ethyl-pyridin-4-ylmethyl-amino)-thiazol-4-ylmethyl]-amino}-benzenesulfonylamino)-thiophene-2-carbonyl]-amino}-5-guanidino-pentanoic acid], for which the inhibition at 3 µM came out at 69%.
Regarding `N=C(N)NCCC[C@H](NC(=O)c1sccc1NS(=O)(=O)c1cc(-c2ccccc2CN2CCNCC2)cc2c1OCC2)C(=O)O` [Compound 20, (S)-5-Guanidino-2-({3-[5-(2-piperazin-1-ylmethyl-phenyl)-2,3-dihydro-benzofuran-7-sulfonylamino]-thiophene-2-carbonyl}-amino)-pentanoic acid], the IC50 came to 2000 nM, the inhibition at 3 µM amounted to 82% and the inhibition at 30 µM came to 100%.
On to `N=C(N)NCCC[C@H](NC(=O)c1sccc1NS(=O)(=O)c1cccc(NCc2csc(N3CCN(Cc4cccnc4)CC3)n2)c1)C(=O)O` [Compound 59, (S)-5-guanidino-2-{[3-(3-{[2-(4-pyridin-3-ylmethyl-piperazin-1-yl)-thiazol-4-ylmethyl]-amino}-benzenesulfonylamino)-thiophene-2-carbonyl]-amino}-pentanoic acid], for which the inhibition at 3 µM was 58% and the inhibition at 30 µM is 94%.
Take `COC(=O)CC1CCN(Cc2ccccc2-c2cc3c(c(S(=O)(=O)Nc4ccsc4C(=O)N[C@@H](CCCNC(=N)N)C(=O)O)c2)OCC3)CC1` [Compound 6, (S)-5-Guanidino-2-[(3-{5-[2-(4-methoxycarbonylmethyl-piperidin-1-ylmethyl)-phenyl]-2,3-dihydro-benzofuran-7-sulfonylamino}-thiophene-2-carbonyl)-amino]-pentanoic acid]: the IC50 is 3 nM and the inhibition at 3 µM was found to be 95%.
For `N=C(N)NCCC[C@H](NC(=O)c1sccc1NS(=O)(=O)c1cc(-c2cccc(CN3CCN(Cc4ccncc4)CC3)c2)cc2c1OCC2)C(=O)O` [Compound 30, (S)-5-Guanidino-2-[(3-{5-[3-(4-pyridin-4-ylmethyl-piperazin-1-ylmethyl)-phenyl]-2,3-dihydro-benzofuran-7-sulfonylamino}-thiophene-2-carbonyl)-amino]-pentanoic acid], the IC50 came out at 691 nM, the inhibition at 3 µM worked out at 80% and the inhibition at 30 µM was found to be 100%.
In the case of `N=C(N)NCCC[C@H](NC(=O)c1sccc1NS(=O)(=O)c1cc(-c2ccccc2CN2CCN(c3ccncc3)CC2)cc2c1OCC2)C(=O)O` [Compound 15, (S)-5-Guanidino-2-[(3-{5-[2-(4-pyridin-4-yl-piperazin-1-ylmethyl)-phenyl]-2,3-dihydro-benzofuran-7-sulfonylamino}-thiophene-2-carbonyl)-amino]-pentanoic acid], the inhibition at 3 µM was 62% and the inhibition at 30 µM amounted to 97%.
With `N=C(N)NCCC[C@H](NC(=O)c1sccc1NS(=O)(=O)c1cccc(NCc2csc(N3CCN(c4nccs4)CC3)n2)c1)C(=O)O` [Compound 76, (S)-5-guanidino-2-{[3-(3-{[2-(4-thiazol-2-yl-piperazin-1-yl)-thiazol-4-ylmethyl]-amino}-benzenesulfonylamino)-thiophene-2-carbonyl]-amino}-pentanoic acid], the inhibition at 3 µM was 68%.
On the same count and under the same terms, next, `N=C(N)NCCC[C@H](NC(=O)c1sccc1NS(=O)(=O)c1cc(-c2ccccc2CNCc2ccncc2)cc2c1OCC2)C(=O)O` [Compound 19, (S)-5-Guanidino-2-({3-[5-(2-{[(pyridin-4-ylmethyl)-amino]-methyl}-phenyl)-2,3-dihydro-benzofuran-7-sulfonylamino]-thiophene-2-carbonyl}-amino)-pentanoic acid]: 56%.
`N=C(N)NCCC[C@H](NC(=O)c1sccc1NS(=O)(=O)c1cccc(NCc2csc(N3CCN(c4cccnc4)CC3)n2)c1)C(=O)O` [Compound 62, (S)-5-guanidino-2-{[3-(3-{[2-(4-pyridin-3-yl-piperazin-1-yl)-thiazol-4-ylmethyl]-amino}-benzenesulfonylamino)-thiophene-2-carbonyl]-amino}-pentanoic acid]: the inhibition at 3 µM worked out at 68% and the inhibition at 30 µM is 95%.

For orientation: IC50 means the concentration that inhibits the measured activity by half. The term inhibition denotes the drop in the measured response relative to a control, in per cent.

Values taken from patent US20120201749A1, “NP-1 Antagonists and Their Therapeutic Use” (priority 2009, published 2012).
